US20070294785A1, “METHODS FOR […] DIVERSITY BY PERMUTATIONAL MUTAGENESIS” (Athenix Corporation, priority 2006, published 2007)

Test system: BL21*DE3 competent E. coli cells
Test: Screening for glyphosate resistance on plates
Type: cell-based
Settings: M63+ agar plates, 50 mM glyphosate, 0.05 mM IPTG, 50 ug/ml kanamycin, 36 hours at 37° C.
Description: Library ligations were transformed into BL21*DE3 competent E. coli cells (Invitrogen). The transformations were performed according to the manufacturer's instructions with the following modifications. After incubation for 1 hour at 37° C. in SOC medium, the cells were sedimented by centrifugation (5 minutes, 1000×g, 4° C.). The cells were washed with 1 ml M63+, centrifuged again, and the supernatant decanted. The cells were washed a second time with 1 ml M63+ and resuspended in 200 ul M63+.
For selection of mutant GRG1 enzymes conferring glyphosate resistance to E. coli, the cells were plated onto M63+ agar medium plates containing 50 mM glyphosate, 0.05 mM IPTG (isopropyl-beta-D-thiogalactopyranoside), and 50 ug/ml kanamycin. M63+ medium contains 100 mM KH2PO4, 15 mM (NH4)2SO4, 50 μM CaCl2, 1 μM FeSO4, 50 μM MgCl2, 55 mM glucose, 25 mg/liter L-proline, 10 mg/liter thiamine HCl, sufficient NaOH to adjust the pH to 7.0, and 15 g/liter agar. The plates were incubated for 36 hours at 37° C.

For “L2-3 (PFIDCDESGLSIRMFTPIVALSK; Clone L2-3)”, which “glyphosate resistance (growth on glyphosate plates)” value (“glyphosate resistance” below) is on record?
The value was “glyphosate resistant”.

With “L2-4 (PFIKCRESGLSMRMFAPMVALSK; Clone L2-4)” as the substance, how does the “glyphosate resistance” value read?
Its value is “glyphosate resistant”.

How did the “glyphosate resistance” value turn out when “L2-6 (PFIDCGESGLSFRMFVPIVALSK; Clone L2-6)” was run?
The value was “glyphosate resistant”.

Which “glyphosate resistance” value does the source give for “L2-7 (PFIECGESGLSIRLFTPLVALSK; Clone L2-7)” here?
Its value is “glyphosate resistant”.

How did the “glyphosate resistance” value turn out when “L2-8 (PFIDCSESGLSFRMFAPLVALSK; Clone L2-8)” was run?
The value was “glyphosate resistant”.

How did the “glyphosate resistance” value turn out when “L2-9 (PFINCGESGLSFRMFIPMVALSK; Clone L2-9)” was run?
Its value is “glyphosate resistant”.

Which “glyphosate resistance” value does the source give for “L2-A (PFINCDESGLSFRMFTPIVALSK; Clone L2-A)” here?
The value was “glyphosate resistant”.
